Results from patent US20130052143A1, “LIQUID PREPARATION FOR ORAL ADMINISTRATION TO BE USED IN CT COLONOGRAPHY, AND COMPOSITION FOR DIGESTIVE TRACT IMAGING” (Ajinomoto Co., Inc., priority 2010, published 2013).

Details: in vivo
Source text: In the insufflation to inflate the intestinal tract, a carbon dioxide gas (CO2) was supplied by using a hand operated double balloon pump through the transanal route. […] No anticonvulsive agent was used.
The procedure of the imaging was such that: firstly, the posture of the examinee was set to the left lateral decubitus position; a tube for insufflation was inserted; and a gas was supplied to confirm that smooth insufflation was possible. Next, the posture of the examinee was set to the abdominal position; the insufflation was conducted until the examinee had claimed a strong feeling of fullness or the pressure inside the intestinal tract had reached 25 mmHg; scanography was performed to confirm that the large intestine had been sufficiently inflated; and thereafter the CT image was taken. After taking the image of the abdominal position, the posture of the examinee was set to the dorsal position, and scanography was again performed to take the CT image in the dorsal position. At this time, if the inflation of the large intestine had been insufficient, additional insufflation was conducted. After the completion of the CT image taking, colon endoscopy was conducted to see the circumstances of the residual feces and residual liquid in the large intestine by eye. The CT image was taken under the charge of a clinical X-ray technician.

O=C=O [CO2, carbon dioxide gas]
examinees who felt abdominal pains: 50.0%
